Measured values as given in patent US5081289A, “Synthesis and isolation of nopaline and its analogues” (The University of Alabama in Birmingham, priority 1989, dated 1992).
Converted amounts (≈) assume the structure as drawn. Where two headings read alike, the source gives them in different places.

Tests used:
octopine dehydrogenase [1] = settings: known substrate specificity; cited from earlier work
Solubility in H2O = type: physicochemical; settings: water, 22° C.
[2] = Conversion (cyclization) of nopaline / isonopaline to the pyro-derivatives; rate of formation; type: physicochemical; settings: for cyclization: above pH 5.5; for reaction rate constant: conversion to pyro-derivative; for first order rate constant, formation of pyrrolidonecarboxylic acid derivative: pH 3.2, 60° C.; for time to completion of conversion to the pyrrolidonecarboxylic acid derivative: pH 3.2, 120° C. (autoclave)
[3] = tested on: A. tumefaciens (strain C-58); assay: Growth of A. tumefaciens (turbidity A650, doubling time) with compound as source of carbon and nitrogen; type: cell-based; settings: for Doubling Time: 0.0045 g/ml in control medium; for utilization as a source of carbon and nitrogen: preinduced and uninduced bacteria
Description: The minimal medium for bacterial growth was the mineral salt mixture described by Petit and Tempe, hereinbefore cited to which glucose was aded to make the final concentration 0.005 g/ml. The control medium was the mineral salt mixture from which the ammonium sulfate was omitted. In order to test whether they would support bacterial growth either nopaline, isonopaline, or the pyrrolidonecarboxylic acid derivative of nopaline or pyronopaline were added separately to the control medium to make the final concentration 0.0045 g/ml.
A single colony from a plate on minimal medium was adapted to liquid medium that contained nopaline. When visibly turbid, the nopaline liquid culture was innoculated (1% innoculum) into minimal liquid medium and into nopaline liquid medium. When turbid, these two cultures were used as inoculum to test the nopaline, isonopaline and pyronopaline in liquid culture media (20 ml in 125 ml flasks). After innoculation (1%), cultures were agitated on a rotary shaker at 1 cycle per second, and growth was monitored by measurement of the turbidity in a spectrophotometer. The turbidity (A650) readings were plotted on log paper and the doubling time was determined from the logarithmic portion of the growth curve (Table II).
Table II contains the results of experiments to test the ability of A. tumefaciens (strain C-58) to utilize the isomers and derivatives of nopaline as a source of carbon and nitrogen. […] The results are the same for both preinduced and uninduced bacteria. As expected the doubling time in minimal medium is greater than that in either nopaline or pyronopaline, since metabolism by the organism is more complex in the […] medium.

octopine dehydrogenase [4] = assay: Oxidation catalyzed by octopine dehydrogenase; type: biochemical, scallops (Pecten maximus); settings: nopaline / isonopaline as substrate
[5] = Stability in bacteria-free tumor extract; type: physicochemical; settings: pH 5.3, 10 days, room temperature
[6] = Reverse reaction (stability) of the pyrrolidonecarboxylic acid derivative of nopaline at 100° C.; type: physicochemical; settings: 100° C. in NaOH, Na2CO3 (both at 0.1M), or HCl (3M)

| SMILES | oxidation catalyzed by octopine dehydrogenase (octopine dehydrogenase [1]) | solubility (Solubility in H2O) [mg/mL] | time for completed conversion to the pyro-derivative ([2]; 60° C., pH 3.2) | cyclization [2] | reaction rate constant [2] [s⁻¹] | first order rate constant, formation of pyrrolidonecarboxylic acid derivative [2] | time to completion of conversion to the pyrrolidonecarboxylic acid derivative [2] [min] | Doubling Time ([3]; Preinduced Innoculum) | Doubling Time ([3]; Uninduced Innoculum) | utilization as a source of carbon and nitrogen [3] | oxidation catalyzed by octopine dehydrogenase (octopine dehydrogenase [4]) | relative rate of reaction of nopaline vs isonopaline ([2]; 22° C. and 100° C.) | time of conversion to the pyro-derivative ([2]; 60° C.) [h] | time for completed conversion to the pyro-derivative ([2]; 100° C., pH 0.0) | time for quantitative conversion to the pyro-derivative ([2]; 100° C., pH 3.2) | time of conversion to the pyro-derivative ([2]; 121° C.) | conversion to the pyro-derivatives ([2]; pH above approximately 5.5, 48 hours at 100° C.) | change of concentration in tumor extract [5] | reverse reaction [6] |
| --- | --- | --- | --- | --- | --- | --- | --- | --- | --- | --- | --- | --- | --- | --- | --- | --- | --- | --- | --- |
| C[C@@H](N[C@@H](CCCNC(=N)N)C(=O)O)C(=O)O [D-octopine] | catalyzes the oxidation of D-octopine | – | – | – | – | – | – | – | – | – | – | – | – | – | – | – | – | – | – |
| N=C(N)NCCC[C@H](N[C@@H](CCC(=O)O)C(=O)O)C(=O)O [Isonopaline] | – | 21.3 (≈ 70 mM) | approximately 100 hours | neither nopaline nor isonopaline is demonstrable | 3.5e-08 | 0.35×10^-7 S^-1 | 30 | no growth | no growth | completely ineffective | not that of isonopaline | – | – | – | – | – | – | – | – |
| C[C@H](N[C@@H](CCCNC(=N)N)C(=O)O)C(=O)O [L-allooctopine] | not of L-allooctopine | – | – | – | – | – | – | – | – | – | – | – | – | – | – | – | – | – | – |
| N=C(N)NCCC[C@H](N[C@H](CCC(=O)O)C(=O)O)C(=O)O [Nopaline, N-(4-((aminoiminomethyl)amino-)-1S-carboxybutyl)-2R-2-pentanedioic acid] | – | 6.3 (≈ 20.7 mM) | – | neither nopaline nor isonopaline is demonstrable | 4.6e-07 | 4.6×10^-7 S^-1 | 30 | 2.8 h | 2.8 h | metabolized | catalyzed the oxidation of nopaline | faster reaction | 18 to 24 | approximately 1.0 hours | approximately 2 hours | approximately 30 minutes | too slow to be readily measured | did not change | – |
| N=C(N)NCCC[C@@H](C(=O)O)N1C(=O)CC[C@@H]1C(=O)O [Pyronopaline, N-(4-((aminoiminomethyl)amino)-1S-carboxybutyl)-2-pyrrolidone-5R-carboxylic acid] | – | 34.5 (≈ 121 mM) | – | – | – | – | – | 3.1 h | 3.1 h | metabolized | – | – | – | – | – | – | – | did not change | No significant reverse reaction |
